Laboratory results published in publication PMC5085761 (International Journal of Molecular Sciences, 2016).

Legend:
[1] = molecular target: T1, OAT3 (Homo sapiens, UniProt Q8TCC7); experiment: [14C]fluciclovine uptake by OAT3-expressing cells; assay type: in vitro ADME; conditions: OAT3 cells vs mock cells
T1 construct: host or cells: HEK293
T1 sequence (Q8TCC7 1-542): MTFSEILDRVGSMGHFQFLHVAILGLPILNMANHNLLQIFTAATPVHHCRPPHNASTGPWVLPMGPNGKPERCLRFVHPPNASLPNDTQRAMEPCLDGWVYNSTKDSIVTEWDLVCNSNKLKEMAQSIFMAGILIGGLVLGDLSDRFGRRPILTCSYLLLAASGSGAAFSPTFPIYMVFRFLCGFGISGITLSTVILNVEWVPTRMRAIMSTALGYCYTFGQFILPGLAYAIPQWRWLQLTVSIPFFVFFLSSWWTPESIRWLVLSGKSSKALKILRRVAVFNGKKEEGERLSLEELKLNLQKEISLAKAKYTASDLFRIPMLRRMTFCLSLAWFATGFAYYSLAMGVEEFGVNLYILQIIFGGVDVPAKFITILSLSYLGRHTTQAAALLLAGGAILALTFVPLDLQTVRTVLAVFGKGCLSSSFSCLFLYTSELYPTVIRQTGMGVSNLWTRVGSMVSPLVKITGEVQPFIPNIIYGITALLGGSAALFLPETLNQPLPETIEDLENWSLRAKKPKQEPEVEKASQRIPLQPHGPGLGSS

[2] = system: LLC-PK1 monolayers; experiment: Apical-to-basal transport through LLC-PK1 monolayers; assay type: in vitro ADME, pig; conditions: 10 µM tracer, at 120 min
Protocol: The LLC-PK1 cell line was purchased from DS Pharma Biomedical (Osaka, Japan). Cells were maintained in Dulbecco’s modified Eagle’s medium (DMEM; Life Technologies Japan, Tokyo, Japan) supplemented with 10% (v/v) fetal bovine serum (American Type Culture Collection, Manassas, VA, USA) and antibiotics (100 U/mL penicillin and 100 μg/mL streptomycin (Life Technologies Japan)). Cells were cultured at 37 °C under an atmosphere containing 5% CO2 before the start of the experiments.
Cells were seeded at a density of 1.5 × 10^6 cells/0.25 mL on the membrane of cell culture inserts fitting 24-well plates (upper compartment, apical side; Becton Dickinson, Franklin Lakes, NJ, USA). Flat-bottom 24-well tissue culture plates (Becton Dickinson) containing 0.95 mL of culture medium per well were used as the basolateral side (bottom compartment).
LLC-PK1 monolayer formation was monitored by the measurement of TER using an EVOM-2 and Endohm24 (World Precision Instruments, Inc., Sarasota, FL, USA) according to the manufacturer’s protocol. […] [^3H]Mannitol transport was measured as described in Section 4.3 for the validation of tight junction formation because mannitol passes through the cell monolayers via the paracellular route.
Experimental procedures were performed as described previously with minor modifications. After cultivation as described above, the culture media in both compartments were replaced with Na^+ buffer (137 mM NaCl, 2.7 mM KCl, 8 mM Na2HPO4, 1.5 mM KH2PO4, 5.6 mM D-glucose, 0.9 mM CaCl2, and 0.5 mM MgCl2; pH 7.4 at 37 °C), and the cells were preincubated for 10 min at 37 °C under normal air conditions. After the buffer was removed from each compartment, the permeability experiments were started with the addition of 0.25 mL of Na^+ buffer containing radiolabeled tracers (final concentration: 81 nM for [^3H]mannitol and 10 μM for the ^14C-labeled amino acid tracers) in each upper compartment, and 0.95 mL of Na^+ buffer in each bottom compartment. The inserts were placed into new 24-well culture plates containing 0.95 mL/well of Na^+ buffer after 5, 15, 30, 60, and 90 min of incubation. Subsequently, the cells were incubated up to 120 min at 37 °C under normal air conditions.
The apical-to-basal permeability was measured by sampling an aliquot of the buffer from the upper and bottom compartment at the indicated times. To evaluate intracellular accumulation, the cells were lysed in 0.5 mL of 0.1N NaOH at room temperature following rapid washing of the cells with ice-cold Na^+ buffer. The radioactivity of each aliquot was measured with an LSC6000SC (Beckman Coulter, Inc., Brea, CA, USA) or Tri-Carb 2910TR liquid scintillation counter (PerkinElmer) using Ultima Gold (PerkinElmer).

N[14C]1(C(=O)O)CC(F)C1 (stereo not drawn) [[^14C]fluciclovine, trans-1-amino-3-fluoro[1-^14C]cyclobutanecarboxylic acid]
drug transporter-mediated uptake [1]: negligible | mean penetration amount (apical-to-basal transport) [2]: 145 pmol | mean residual radioactivity in the cells [2]: 238 pmol
